Data reported in patent US8980325B2, “Compositions and methods for treating digestive disorders” (Revalesio Corporation, priority 2008, dated 2015).

System: glutathione peroxidase
Experiment: Hydrogen peroxide tests, glutathione peroxidase reactivity
Type: biochemical
Details: A340 nm, 25 degrees Celsius; low and high concentration
Protocol: The inventive oxygen-enriched output fluid material was tested for the presence of hydrogen peroxide by testing the reactivity with glutathione peroxidase using a standard assay (Sigma). Briefly, glutathione peroxidase enzyme cocktail was constituted in deionized water and the appropriate buffers. Water samples were tested by adding the enzyme cocktail and inverting. Continuous spectrophotometric rate determination was made at A340 nm, and room temperature (25 degrees Celsius).
Water samples were tested by adding the enzyme cocktail and inverting. Continuous spectrophotometric rate determination was made at A340 nm, and room temperature (25 degrees Celsius).

reactivity with glutathione peroxidase: strong reactivity
SMILES: OO [hydrogen peroxide]
